The values below come from patent publication US20250387424A1, “PHARMACEUTICAL COMPOSITION COMPRISING A3 ADENOSINE RECEPTOR AGONIST FOR TREATMENT OF PSORIASIS” (CAN-FITE BIOPHARMA LTD., priority 2022, published 2025).

Data set [1] has as its system patients with moderate to severe plaque psoriasis. Briefly: COMFORT-1 phase 3 trial, efficacy (PASI, PGA2, PDI). Type of data set: in vivo, human.
For data set [2] the test system is unchanged. Description: COMFORT-1 phase 3 trial, safety (TEAEs, ECG). The conditions noted are these: for serious TEAE (number): not considered drug related; for tolerability: 32-week study period.
Source text: The COMFORT-1 study was a phase 3 multicenter (with sites in Bosnia, Bulgaria, Canada, Israel, Moldova, Poland, Romania, and Serbia) randomized, double-blind, controlled clinical trial in moderate-to-severe plaque psoriasis (ClinicalTrials.gov identifier: NCT03168256). […] Eligible patients were randomly assigned to these arms in a 3:3:3:2 ratio. Blinding was maintained using a double-dummy technique. The second segment (Weeks 16-32) included 3 treatment arms, as at Week 16, the patients in the placebo arm were re-randomized to piclidenoson 2 mg BID, piclidenoson 3 mg BID, or apremilast (dose-titrated over 6 days to 30 mg BID) in a 1:1:1 ratio and treated through Week 32. Those originally assigned to piclidenoson or apremilast remained on their initially assigned treatment through Week 32. Blinding was maintained through Week 32. Patients were evaluated every 2 weeks for efficacy and safety.
Safety assessments included treatment emergent adverse events (TEAEs) and changes in vital signs, physical examination, clinical laboratory tests (liver, kidney, hematology, chemistry, and urinalysis), and electrocardiogramdings.
Overall, 4 analysis populations were defined: The safety population included all patients who received ≥1 dose of piclidenoson; the intent-to-treat (ITT) population included all those in the safety population with at least one PASI score recorded post-BL and excluded patients who withdrew prior to Week 16 due to COVID-19-related study suspension; the modified ITT (mITT) population, which was used for the Week 16 efficacy analyses, included all ITT patients except one patient in the placebo arm who was excluded due to major protocol violations that were not captured in the original data; and lastly, the per protocol (PP) population, which was used for the Week 32 analyses, and included all ITT patients who had no major protocol violations on or before Week 16 and who completed Week 16 of the study. Exclusion from the PP population was finalized prior to any unblinded analyses. The analyses conducted for Week 32 were performed separately for patients who were initially randomized to piclidenoson or apremilast and for those who were initially randomized to the placebo group.
Descriptive statistics were used to summarize patient characteristics and safety. […] If a patient had more than one TEAE with the same PT, the patient was counted once.
A short description of data set [3]: COMFORT-1 phase 3 trial, pharmacokinetics (Cmax, AUC). Type of data set: in vivo, human. The following applies: 2 mg BID arm compared with 3 mg BID arm; Weeks 0, 8, 16. On the procedure: The trial had 2 segments (FIG. 1). […] Blinding was maintained through Week 32.
The primary endpoints included the proportion of patients achieving PASI 75 in the piclidenoson 2 mg and 3 mg BID arms vs. placebo at Week 16 (superiority) and safety. Secondary endpoints at Week 16 compared the piclidenoson arms to placebo and included the proportion of patients achieving PASI 50, the proportion of patients achieving a score of 0 or 1 in PGA2 (a PASI-based measure calculated using the intensity grading of components of the PASI score; specifically, it is the average of the PASI erythema, infiltration, and desquamation scores) [Gordon, K. B. et al. N Engl J Med 373, 136-144 (2015)], and the proportion of patients experiencing an improvement from BL in Psoriasis Disability Index (PDI). Additional secondary endpoints were evaluated at Week 32 and compared the piclidenoson arms to apremilast. These included the proportion of patients achieving PASI 75, PASI 50, PGA2 of 0 or 1, and the proportion of patients experiencing an improvement from BL in PDI. PK analysis, including calculating the peak concentration of the drug in the bloodstream after administration (Cmax), was conducted for Weeks 0, 8, and 16.

[4] abbreviates: apremilast 30 mg BID, Week 32, PP population.
The mark [5] stands for this setting: apremilast 30 mg BID, Weeks 0-32, safety population N = 177.
[6] abbreviates: piclidenoson 2 mg BID, Weeks 0-32, safety population N = 179.
Setting [7] is: piclidenoson 3 mg BID, Weeks 0-32, safety population N = 173.

As for `CCOc1cc([C@@H](CS(C)(=O)=O)N2C(=O)c3cccc(NC(C)=O)c3C2=O)ccc1OC` [Apremilast, apremilast, reference compound], in data set [1] (setting [4]), the “patients achieving improvement from baseline in PDI (number/arm total)” value is given as 59/108, the “proportion of patients achieving PASI 50” value is given as 25.2%, the “proportion of patients achieving improvement from BL in PDI” value is reported as 55.1% and the “proportion of patients with PGA2 of 0 or 1” value turned out to be 24.3%. The “proportion of patients achieving PASI 75” value in data set [1] (apremilast 30 mg BID, Week 32, PP population, initially randomized to active treatment) amounted to 26.2%. Moreover, in data set [2] (setting [5]), the “Incidence of TEAE: GI disorders: Any” value was 7.3% and the “Incidence of TEAE: Nervous system: Any” value was determined as 9.6%. Besides, the “serious TEAE (number)” value in data set [2] (apremilast 30 mg BID, pneumonia) is recorded as 1. Moreover, the “patients who withdrew from the study due to TEAEs” value in data set [2] (apremilast arm, Weeks 0-32) came out at 1.
As to `CNC(=O)[C@H]1O[C@@H](n2cnc3c(NCc4cccc(I)c4)ncnc32)[C@H](O)[C@@H]1O` [Piclidenoson, methyl 1-[N^6-(3-iodobenzyl)-adenin-9-yl]-β-D-ribofuronamide], the “proportion of patients achieving PGA2 (0 or 1)” value in data set [1] (piclidenoson 2 mg BID, Week 16, mITT population, p=0.027 vs placebo) was 11.8%±2.8%; in data set [1] (piclidenoson 3 mg BID, Week 16, mITT population, p=0.068 vs placebo), 10.7%±3.0%. Besides, the “proportion of patients achieving PASI 50” value in data set [1] (piclidenoson 2 mg BID, Week 16, mITT population, p=0.060 vs placebo) was determined as 26.0%; in data set [1] (piclidenoson 2 mg BID, Week 32, PP population, noninferiority vs apremilast p=0.75), 17.0%; in data set [1] (piclidenoson 3 mg BID, Week 16, mITT population, p=0.475 vs placebo), 19.4%; in data set [1] (piclidenoson 3 mg BID, Week 32, PP population, noninferiority vs apremilast p=0.49), 19.3%. Also, the “proportion of patients achieving PASI 75” value in data set [1] (piclidenoson 2 mg BID, Week 16, mITT population, p=0.075 vs placebo) is 7.9%±2.4%; in data set [1] (piclidenoson 2 mg BID, Week 32, PP population, initially randomized to active treatment, noninferiority vs apremilast p=0.429), 20.8%; in data set [1] (piclidenoson 3 mg BID, Week 16, mITT population, p=0.037 vs placebo) it was 9.7%±1.8%; in data set [1] (piclidenoson 3 mg BID, Week 16, mITT population, p=0.037 vs placebo, listed as piclidenoson) it was 9.7%; in data set [1] (piclidenoson 3 mg BID, Week 32, PP population, initially randomized to active treatment, noninferiority vs apremilast p=0.881) it was 17.0%. Besides, the “proportion of patients achieving PDI improvement from BL” value in data set [1] (piclidenoson 2 mg BID, Week 16, mITT population, p=0.70 vs placebo) was found to be 63.3%; in data set [1] (piclidenoson 3 mg BID, Week 16, mITT population, p=1.00 vs placebo) it was 58.3%. For the same compound, the “proportion of patients with PGA2 of 0 or 1” value was 18.9% in data set [1] (piclidenoson 2 mg BID, Week 32, PP population, noninferiority vs apremilast p=0.417) and 15.9% in data set [1] (piclidenoson 3 mg BID, Week 32, PP population, noninferiority vs apremilast p=0.777). The “proportion of patients achieving improvement from BL in PDI” value worked out at 48.1% in data set [1] (piclidenoson 2 mg BID, Week 32, PP population, noninferiority vs apremilast p=0.66) and 58.0% in data set [1] (piclidenoson 3 mg BID, Week 32, PP population, noninferiority vs apremilast p=0.072). In addition, the “patients achieving improvement from baseline in PDI (number/arm total)” value in data set [1] (piclidenoson 3 mg BID, Week 32, PP population) is on record as 51/88. The “exposure as measured by both Cmax and AUC” value in data set [3] is “similar”. Further, the safety profile entry in data set [2] (3 mg dose of piclidenoson) is “excellent and better than apremilast”. Moreover, the “safety profile compared with placebo” value in data set [2] (both piclidenoson dosages, placebo used only Week 0 through Week 16) is on record as “generally comparable to that of placebo”. Further, in data set [2] (piclidenoson 2 mg BID and 3 mg BID), the “safety profile compared with apremilast” value was “more favorable than that of apremilast”. For the same compound, the “patients who withdrew from the study due to TEAEs” value is 2 in data set [2] (piclidenoson 2 mg BID arm, Weeks 0-32) and 5 in data set [2] (piclidenoson 3 mg BID arm, Weeks 0-32). The tolerability result in data set [2] (piclidenoson 2 mg BID) and in data set [2] (piclidenoson 3 mg BID) was “well-tolerated” in each case. For the same compound, the “Incidence of TEAE: GI disorders: Any” value in data set [2] (setting [6]) turned out to be 2.8%; in data set [2] (setting [7]), 1.2%. In addition, the “Incidence of TEAE: Infections/infestations: Nasopharyngitis” value in data set [2] (setting [6]) came to 2.2%; in data set [2] (setting [7]), 2.9%. For the same compound, the “Incidence of TEAE: Infections/infestations: Urinary tract infection” value in data set [2] (setting [6]) came out at 3.4%. Moreover, the “Incidence of TEAE: Nervous system: Any” value in data set [2] (setting [6]) and in data set [2] (setting [7]) was 1.7% each time. In addition, the “serious TEAE (number)” value in data set [2] (piclidenoson 2 mg BID, arterial embolism) is on record as 1; in data set [2] (piclidenoson 3 mg BID, osteomyelitis), 1.
